Measured values taken from patent publication US9365522B2, “Pyrazole amide derivative” (AMGEN INC., priority 2015, dated 2016).
Where two headings read alike, the source gives them in different places.

Molecular target: T1, ligand binding domain of human ROR gamma (Homo sapiens, UniProt P51449)
T1 construct: NM_001001523; expressed in transfected cells; host or cells: HEK293T
T1 sequence (P51449 247-497 isoform P51449-2): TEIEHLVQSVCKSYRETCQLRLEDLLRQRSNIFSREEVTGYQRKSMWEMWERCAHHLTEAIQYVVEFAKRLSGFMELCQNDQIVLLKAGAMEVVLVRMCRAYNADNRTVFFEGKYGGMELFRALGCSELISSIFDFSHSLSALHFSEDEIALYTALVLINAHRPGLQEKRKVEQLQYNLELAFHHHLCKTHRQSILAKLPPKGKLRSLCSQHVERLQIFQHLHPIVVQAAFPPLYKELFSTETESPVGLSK
Experiment: ROR gamma reporter gene assay (GAL4-RORγ LBD luciferase, Dual-Glo)
Assay type: cell-based
Conditions: HEK293T cells transfected with pM-ROR gamma, 8 concentrations 3.5 nM to 10.5 μM, 24 h incubation
Method in brief: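 First, HEK293T cells are transfected with the GAL4–RORγ LBD construct, a 5×UAS luciferase reporter and a constitutive renilla control. Next, test compounds are added over eight concentrations (3.5 nM to 10.5 μM). After 24 h at 37 °C, Dual-Glo luminescence is measured and pIC50 fitted.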

[1] = read-out: result (pIC50, inhibition of RORγ transcriptional activity) (converted)

Compound: CONC(=O)[C@H]1CC[C@H](n2ncc(C(=O)N(CC(=O)c3c(Cl)cncc3Cl)Cc3cc(F)cc(F)c3)c2C(F)(F)F)CC1 [Example 6, N-(2-(3,5-dichloropyridin-4-yl)-2-oxoethyl)-N-(3,5-difluorobenzyl)-1-(trans-4-(methoxycarbamoyl)cyclohexyl)-5-(trifluoromethyl)-1H-pyrazole-4-carboxamide]
- IC50 [1]: 87100 pM

Compound: CC1(C)CCC(N(CC(=O)c2c(Cl)cc(F)cc2Cl)C(=O)c2cnn([C@H]3C[C@](C)(C(=O)O)C3)c2C(F)(F)F)CC1 [Example 339, trans-3-(4-((2-(2,6-dichloro-4-fluorophenyl)-2-oxoethyl)-(4,4-dimethylcyclohexyl)carbamoyl)-5-(trifluoromethyl)pyrazol-1-yl)-1-methylcyclobutane-1-carboxylic acid]
- IC50 [1]: 83200 pM

Compound: CC(C)[C@@H]1C[C@@H]1N(CC(=O)c1c(Cl)cncc1Cl)C(=O)c1cnn([C@H]2CC[C@](C)(C(=O)O)CC2)c1C(F)(F)F [Example 340, trans-4-(4-((2-(3,5-dichloropyridin-4-yl)-2-oxoethyl)-((1S,2S)-2-propan-2-ylcyclopropyl)carbamoyl)-5-(trifluoromethyl)pyrazol-1-yl)-1-methylcyclohexane-1-carboxylic acid]
- IC50 [1]: 123000 pM

Compound: Cc1cc(Cl)c(C(=O)CN(C(=O)c2cnn(C34CCC(C(=O)O)(CC3)CC4)c2C(F)(F)F)C2CCC(C)(C)CC2)c(Cl)c1 [Example 236, 4-(4-((2-(2,6-dichloro-4-methylphenyl)-2-oxoethyl)-(4,4-dimethylcyclohexyl)carbamoyl)-5-(trifluoromethyl)pyrazol-1-yl)bicyclo[2.2.2]octane-1-carboxylic acid]
- IC50 [1]: 10500 pM

Compound: CC(C)(C)CN(CC(=O)c1c(Cl)cncc1Cl)C(=O)c1cnn([C@H]2CC[C@](C)(C(=O)O)CC2)c1C(F)(F)F [Example 186, trans-4-(4-((2-(3,5-dichloropyridin-4-yl)-2-oxoethyl)-(2,2-dimethylpropyl)carbamoyl)-5-(trifluoromethyl)pyrazol-1-yl)-1-methylcyclohexane-1-carboxylic acid]
- IC50 [1]: 26900 pM

Compound: O=C(CN(Cc1ccc(F)cc1)C(=O)c1cnn(C23CCC(C(=O)O)(CC2)CC3)c1C(F)(F)F)c1c(Cl)cncc1Cl [Example 166, 4-(4-((2-(3,5-dichloropyridin-4-yl)-2-oxoethyl)-((4-fluorophenyl)methyl)carbamoyl)-5-(trifluoromethyl)pyrazol-1-yl)bicyclo[2.2.2]octane-1-carboxylic acid]
- IC50 [1]: 15500 pM

Compound: C[C@H](N(CC(=O)c1c(Cl)cncc1Cl)C(=O)c1cnn([C@H]2CC[C@H](C(=O)O)CC2)c1C(F)(F)F)C(C)(C)C [Example 114, trans-4-(4-((2-(3,5-dichloropyridin-4-yl)-2-oxoethyl)-((2S)-3,3-dimethylbutan-2-yl)carbamoyl)-5-(trifluoromethyl)pyrazol-1-yl)cyclohexane-1-carboxylic acid]
- IC50 [1]: 2.29e+06 pM

Compound: CC1(C)CC(CN(CC(=O)c2c(Cl)cncc2Cl)C(=O)c2cnn([C@H]3CC[C@](C)(C(=O)O)CC3)c2Cl)C1 [Example 381, trans-4-(5-chloro-4-((2-(3,5-dichloropyridin-4-yl)-2-oxoethyl)-((3,3-dimethylcyclobutyl)methyl)carbamoyl)pyrazol-1-yl)-1-methylcyclohexane-1-carboxylic acid]
- IC50 [1]: 100000 pM

Compound: CC(C)(C)CC1CC(CN(CC(=O)c2c(Cl)cncc2Cl)C(=O)c2cnn([C@H]3CC[C@H](C(=O)O)CC3)c2C(F)(F)F)C1 (stereo partly drawn) [Example 140, trans-4-(4-((2-(3,5-dichloropyridin-4-yl)-2-oxoethyl)-((3-(2,2-dimethylpropyl)cyclobutyl)methyl)carbamoyl)-5-(trifluoromethyl)pyrazol-1-yl)cyclohexane-1-carboxylic acid]
- IC50 [1]: 200000 pM

Compound: O=C(CN(Cc1cc(F)cc(F)c1)C(=O)c1cnn([C@H]2CC[C@H](C(=O)O)CC2)c1C(F)(F)F)c1c(Cl)cccc1Cl [Example 53, trans-4-(4-((2-(2,6-dichlorophenyl)-2-oxoethyl)(3,5-difluorobenzyl)carbamoyl)-5-(trifluoromethyl)-1H-pyrazol-1-yl)cyclohexanecarboxylic acid]
- IC50 [1]: 16200 pM

Compound: COc1cccc(Cl)c1C(=O)CN(CC1CC(C)(C)C1)C(=O)c1cnn(C23CCC(C(=O)O)(CC2)CC3)c1C(F)(F)F [Example 257, 4-(4-((2-(2-chloro-6-methoxyphenyl)-2-oxoethyl)-((3,3-dimethylcyclobutyl)methyl)carbamoyl)-5-(trifluoromethyl)pyrazol-1-yl)bicyclo[2.2.2]octane-1-carboxylic acid]
- IC50 [1]: 20000 pM

Compound: COc1cccc(Cl)c1[C@@H](O)CN(C(=O)c1cnn([C@H]2CC[C@](C)(C(=O)O)CC2)c1C(F)(F)F)[C@H]1C[C@@H]2[C@H](C1)C2(C)C [Example 341, trans-4-(4-((2-(2-chloro-6-methoxyphenyl)-2-hydroxyethyl)((1R,3r,5S)-6,6-dimethylbicyclo[3.1.0]hexan-3-yl)carbamoyl)-5-(trifluoromethyl)-1H-pyrazol-1-yl)-1-methylcyclohexanecarboxylic acid]
- IC50 [1]: 759000 pM

Compound: O=C(CN(Cc1cc(F)cc(F)c1)C(=O)c1cnn([C@H]2CC[C@H](C(=O)O)CC2)c1C(F)(F)F)c1c(O)nc(O)nc1O [Example 12, trans-4-(4-((3,5-difluorobenzyl)(2-oxo-2-(2,4,6-trihydroxypyrimidin-5-yl)ethyl)carbamoyl)-5-(trifluoromethyl)-1H-pyrazol-1-yl)cyclohexanecarboxylic acid]
- IC50 (result (pIC50, inhibition of RORγ transcriptional activity)): 3.72e+06 pM

Compound: Cc1cc(Cl)c(C(=O)CN(CC2(F)CCCC2)C(=O)c2cnn(C34CCC(C(=O)O)(CC3)CC4)c2C(F)(F)F)c(Cl)c1 [Example 300, 4-(4-((2-(2,6-dichloro-4-methyIphenyl)-2-oxoethyl)-((1-fluorocyclopentyl)methyl)carbamoyl)-5-(trifluoromethyl)pyrazol-1-yl)bicyclo[2.2.2]octane-1-carboxylic acid]
- IC50 [1]: 24000 pM

Compound: O=C(CN(CC1(F)CCCC1)C(=O)c1cnn(C23CCC(C(=O)O)(CC2)CC3)c1C(F)(F)F)c1c(Cl)cc(F)cc1Cl [Example 271, 4-(4-((2-(2,6-dichloro-4-fluorophenyl)-2-oxoethyl)-((1-fluorocyclopentyl)methyl)carbamoyl)-5-(trifluoromethyl)pyrazol-1-yl)bicyclo[2.2.2]octane-1-carboxylic acid]
- IC50 [1]: 5130 pM

Compound: Cc1cncc(C)c1C(=O)CN(Cc1cc(F)cc(F)c1)C(=O)c1cnn([C@H]2CC[C@H](C(=O)O)CC2)c1C(F)(F)F [Example 52]
- IC50 [1]: 245000 pM

Compound: CC(C)(C)C#CCN(CC(=O)c1c(Cl)cccc1C(F)(F)F)C(=O)c1cnn([C@H]2CC[C@](C)(C(=O)O)CC2)c1C(F)(F)F [Example 217, trans-4-(4-((2-(2-chloro-6-(trifluoromethyl)phenyl)-2-oxoethyl)-(4,4-dimethylpent-2-ynyl)carbamoyl)-5-(trifluoromethyl)pyrazol-1-yl)-1-methylcyclohexane-1-carboxylic acid]
- IC50 [1]: 219000 pM

Compound: CC12CCC(CN(CC(=O)c3c(Cl)cncc3Cl)C(=O)c3cnn([C@H]4CC[C@H](C(=O)O)CC4)c3C(F)(F)F)(CC1)O2 [Example 160, trans-4-(4-((2-(3,5-dichloropyridin-4-yl)-2-oxoethyl)-((1-methyl-7-oxabicyclo[2.2.1]heptan-4-yl)methyl)carbamoyl)-5-(trifluoromethyl)pyrazol-1-yl)cyclohexane-1-carboxylic acid]
- IC50 [1]: 24500 pM

Compound: CC1(C)CC(CN(CC(=O)c2c(Cl)cc(F)cc2Cl)C(=O)c2cnn([C@H]3CC[C@](C)(C(=O)O)CC3)c2C(F)(F)F)C1 [Example 249, trans-4-(4-((2-(2,6-dichloro-4-fluorophenyl)-2-oxoethyl)-((3,3-dimethylcyclobutyl)methyl)carbamoyl)-5-(trifluoromethyl)pyrazol-1-yl)-1-methylcyclohexane-1-carboxylic acid]
- IC50 [1]: < 3470 pM

Compound: CC1(C)CCC(N(CC(=O)c2c(Cl)cc(Cl)cc2Cl)C(=O)c2cnn([C@H]3CC[C@](C)(C(=O)O)CC3)c2C(F)(F)F)CC1 [Example 191, trans-4-(4-((4,4-dimethylcyclohexyl)-(2-oxo-2-(2,4,6-trichlorophenyl)ethyl)carbamoyl)-5-(trifluoromethyl)pyrazol-1-yl)-1-methylcyclohexane-1-carboxylic acid]
- IC50 [1]: 8910 pM

Compound: C[C@]1(C(=O)O)CC[C@H](n2ncc(C(=O)N(CC(=O)c3c(Cl)cncc3Cl)CC3(O)CCCC3)c2C(F)(F)F)CC1 [Example 324, trans-4-(4-((2-(3,5-dichloropyridin-4-yl)-2-oxoethyl)-((1-hydroxycyclopentyl)methyl)carbamoyl)-5-(trifluoromethyl)pyrazol-1-yl)-1-methylcyclohexane-1-carboxylic acid]
- IC50 [1]: 380000 pM

Compound: O=C(CN(Cc1cc(F)cc(F)c1)C(=O)c1cnn(C2CCC(C(=O)O)CC2)c1C(F)(F)F)c1c(O)cccc1O (stereo not shown) [Example 9, 4-(4-((3,5-difluorobenzyl)(2-(2,6-dihydroxyphenyl)-2-oxoethyl)carbamoyl)-5-(trifluoromethyl)-1H-pyrazol-1-yl)cyclohexanecarboxylic acid]
- IC50 [1]: > 1e+07 pM
